Test results published in ChEMBL document CHEMBL5344407, “Histone deacetylases (HDACs) as the promising immunotherapeutic targets for hematologic cancer treatment” (Eur J Med Chem, 2023).
pIC50: −log10 of the molar value.

Assays:
Histone deacetylase 1 [1] = biological target: T1, Histone deacetylase 1 (Homo sapiens, UniProt Q13547); experiment: Inhibition of N-terminal GST-tagged full length human HDAC1 expressed in baculovirus system using FTS as substrate preincubated for 10 mins followed by substrate addition and measured after 2 hrs by fluorescence based analysis
[2] = biological target: T2, Protein deacetylase HDAC6 (Homo sapiens, UniProt Q9UBN7); experiment: Inhibition of N-terminal GST-tagged full length human HDAC6 expressed in baculovirus system using FTS as substrate preincubated for 10 mins followed by substrate addition and measured after 2 hrs by fluorescence based analysis
T2 sequence (Q9UBN7 whole entry): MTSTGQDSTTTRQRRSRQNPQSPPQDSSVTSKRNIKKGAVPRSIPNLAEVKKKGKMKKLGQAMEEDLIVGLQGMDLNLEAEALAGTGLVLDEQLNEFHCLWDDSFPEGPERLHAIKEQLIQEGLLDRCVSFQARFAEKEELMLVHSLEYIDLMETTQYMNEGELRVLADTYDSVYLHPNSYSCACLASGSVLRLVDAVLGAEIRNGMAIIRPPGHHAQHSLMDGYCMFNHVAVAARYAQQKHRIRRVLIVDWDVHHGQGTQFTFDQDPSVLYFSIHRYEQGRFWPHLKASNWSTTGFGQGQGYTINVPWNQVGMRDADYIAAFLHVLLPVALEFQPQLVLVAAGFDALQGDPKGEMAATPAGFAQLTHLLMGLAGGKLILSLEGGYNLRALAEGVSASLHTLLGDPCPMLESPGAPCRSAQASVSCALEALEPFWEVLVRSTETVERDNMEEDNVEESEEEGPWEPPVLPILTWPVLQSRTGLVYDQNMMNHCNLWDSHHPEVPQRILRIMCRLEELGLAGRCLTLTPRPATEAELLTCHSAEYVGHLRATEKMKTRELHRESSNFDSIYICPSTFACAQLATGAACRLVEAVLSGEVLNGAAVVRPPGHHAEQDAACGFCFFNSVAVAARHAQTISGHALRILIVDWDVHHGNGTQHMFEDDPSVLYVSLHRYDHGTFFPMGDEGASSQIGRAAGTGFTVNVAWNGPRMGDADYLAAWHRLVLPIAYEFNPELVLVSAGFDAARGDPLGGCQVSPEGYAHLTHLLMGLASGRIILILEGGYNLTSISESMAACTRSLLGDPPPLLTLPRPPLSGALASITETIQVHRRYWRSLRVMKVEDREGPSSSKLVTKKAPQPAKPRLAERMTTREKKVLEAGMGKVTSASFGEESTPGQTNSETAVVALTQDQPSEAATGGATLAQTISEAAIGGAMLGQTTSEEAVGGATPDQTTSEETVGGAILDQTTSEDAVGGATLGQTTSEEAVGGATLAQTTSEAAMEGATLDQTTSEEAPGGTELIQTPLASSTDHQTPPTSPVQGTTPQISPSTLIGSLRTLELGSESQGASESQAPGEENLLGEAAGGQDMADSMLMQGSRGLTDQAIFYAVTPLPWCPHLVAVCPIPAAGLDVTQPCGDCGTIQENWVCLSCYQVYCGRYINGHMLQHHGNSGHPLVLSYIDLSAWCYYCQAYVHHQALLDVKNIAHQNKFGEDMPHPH

Histone deacetylase 3 [3] = biological target: T3, Histone deacetylase 3 (Homo sapiens, UniProt O15379); experiment: Inhibition of N-terminal GST-tagged full length human HDAC3 expressed in baculovirus system using FTS as substrate preincubated for 10 mins followed by substrate addition and measured after 2 hrs by fluorescence based analysis
Histone deacetylase 2 [4] = biological target: T4, Histone deacetylase 2 (Homo sapiens, UniProt Q92769); experiment: Inhibition of N-terminal GST-tagged full length human HDAC2 expressed in baculovirus system using FTS as substrate preincubated for 10 mins followed by substrate addition and measured after 2 hrs by fluorescence based analysis
Histone deacetylase 8 = biological target: T5, Histone deacetylase 8 (Homo sapiens, UniProt Q9BY41); experiment: Inhibition of N-terminal GST-tagged full length human HDAC8 expressed in baculovirus system using FTS as substrate preincubated for 10 mins followed by substrate addition and measured after 2 hrs by fluorescence based analysis
T5 sequence (Q9BY41 whole entry): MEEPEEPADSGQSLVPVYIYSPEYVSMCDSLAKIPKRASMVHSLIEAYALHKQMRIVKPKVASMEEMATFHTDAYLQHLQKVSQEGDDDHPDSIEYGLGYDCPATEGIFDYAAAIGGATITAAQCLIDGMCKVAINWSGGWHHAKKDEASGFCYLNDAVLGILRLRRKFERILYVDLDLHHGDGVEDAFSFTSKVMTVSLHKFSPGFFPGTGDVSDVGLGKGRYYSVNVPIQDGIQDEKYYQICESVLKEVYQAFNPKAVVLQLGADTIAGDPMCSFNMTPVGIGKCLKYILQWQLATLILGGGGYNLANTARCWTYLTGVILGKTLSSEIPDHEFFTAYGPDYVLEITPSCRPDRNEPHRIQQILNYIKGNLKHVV

Histone deacetylase 1 [5] = biological target: T1, Histone deacetylase 1; experiment: Inhibition of human recombinant HDAC1 using ZMAL (Z-(Ac)Lys-AMC) as fluorogenic substrate preincubated for 5 mins followed by substrate addition and measured after 1 hr by fluorescence based analysis
Histone deacetylase 2 [6] = biological target: T4, Histone deacetylase 2; experiment: Inhibition of human full length recombinant HDAC2 expressed in baculovirus infected Sf9 cells using RHKKAc as substrate preincubated for 10 mins followed by substrate addition and measured after 2 hrs by fluorescence based analysis
Histone deacetylase 3 [7] = biological target: T3, Histone deacetylase 3; experiment: Inhibition of recombinant full length human HDAC3 expressed in insect Sf9 cells
Histone deacetylase 11 = biological target: T6, Histone deacetylase 11 (Homo sapiens, UniProt Q96DB2); experiment: Inhibition of HDAC11 (unknown origin)
T6 sequence (Q96DB2 whole entry): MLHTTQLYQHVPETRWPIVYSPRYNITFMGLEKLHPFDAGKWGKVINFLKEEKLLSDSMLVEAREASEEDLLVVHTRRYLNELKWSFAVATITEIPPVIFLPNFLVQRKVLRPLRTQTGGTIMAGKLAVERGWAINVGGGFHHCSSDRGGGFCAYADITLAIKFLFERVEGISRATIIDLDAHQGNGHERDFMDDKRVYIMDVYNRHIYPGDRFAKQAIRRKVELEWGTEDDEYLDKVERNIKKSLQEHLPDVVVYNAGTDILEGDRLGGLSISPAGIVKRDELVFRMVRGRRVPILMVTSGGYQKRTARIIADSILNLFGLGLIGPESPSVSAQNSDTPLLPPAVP

[8] = biological target: T7, Polyamine deacetylase HDAC10 (Homo sapiens, UniProt Q969S8); experiment: Inhibition of HDAC10 (unknown origin)
T7 sequence (Q969S8 whole entry): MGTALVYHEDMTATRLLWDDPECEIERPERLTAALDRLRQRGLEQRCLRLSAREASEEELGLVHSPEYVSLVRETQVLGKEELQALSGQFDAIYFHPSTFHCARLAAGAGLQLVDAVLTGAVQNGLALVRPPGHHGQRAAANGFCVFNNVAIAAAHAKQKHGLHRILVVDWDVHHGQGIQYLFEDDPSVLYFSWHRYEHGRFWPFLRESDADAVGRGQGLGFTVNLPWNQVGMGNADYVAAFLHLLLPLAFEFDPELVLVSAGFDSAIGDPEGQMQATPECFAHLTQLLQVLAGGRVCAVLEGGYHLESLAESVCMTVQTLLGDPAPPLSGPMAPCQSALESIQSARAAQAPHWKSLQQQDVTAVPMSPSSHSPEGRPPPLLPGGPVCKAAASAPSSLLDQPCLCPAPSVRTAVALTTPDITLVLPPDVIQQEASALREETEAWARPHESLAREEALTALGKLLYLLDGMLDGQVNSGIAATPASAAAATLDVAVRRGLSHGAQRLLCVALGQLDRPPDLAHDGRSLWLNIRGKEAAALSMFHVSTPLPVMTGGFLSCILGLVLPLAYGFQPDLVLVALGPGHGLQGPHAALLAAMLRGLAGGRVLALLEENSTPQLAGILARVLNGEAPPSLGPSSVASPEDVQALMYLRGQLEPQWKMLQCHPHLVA

T4 sequence (Q92769 whole entry): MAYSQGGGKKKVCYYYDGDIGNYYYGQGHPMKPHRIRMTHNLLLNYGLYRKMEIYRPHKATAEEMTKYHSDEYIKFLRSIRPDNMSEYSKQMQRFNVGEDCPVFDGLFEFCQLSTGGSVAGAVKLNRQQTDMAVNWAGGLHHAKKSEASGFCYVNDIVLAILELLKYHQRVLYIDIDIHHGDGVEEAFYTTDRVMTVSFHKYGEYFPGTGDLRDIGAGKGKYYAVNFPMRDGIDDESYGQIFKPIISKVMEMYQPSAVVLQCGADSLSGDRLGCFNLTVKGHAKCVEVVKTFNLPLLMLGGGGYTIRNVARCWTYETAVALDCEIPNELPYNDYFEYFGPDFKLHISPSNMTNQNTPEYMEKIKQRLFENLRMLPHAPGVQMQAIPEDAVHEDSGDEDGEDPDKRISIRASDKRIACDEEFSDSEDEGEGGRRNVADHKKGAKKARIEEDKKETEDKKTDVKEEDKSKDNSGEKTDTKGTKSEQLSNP
T3 sequence (O15379 whole entry): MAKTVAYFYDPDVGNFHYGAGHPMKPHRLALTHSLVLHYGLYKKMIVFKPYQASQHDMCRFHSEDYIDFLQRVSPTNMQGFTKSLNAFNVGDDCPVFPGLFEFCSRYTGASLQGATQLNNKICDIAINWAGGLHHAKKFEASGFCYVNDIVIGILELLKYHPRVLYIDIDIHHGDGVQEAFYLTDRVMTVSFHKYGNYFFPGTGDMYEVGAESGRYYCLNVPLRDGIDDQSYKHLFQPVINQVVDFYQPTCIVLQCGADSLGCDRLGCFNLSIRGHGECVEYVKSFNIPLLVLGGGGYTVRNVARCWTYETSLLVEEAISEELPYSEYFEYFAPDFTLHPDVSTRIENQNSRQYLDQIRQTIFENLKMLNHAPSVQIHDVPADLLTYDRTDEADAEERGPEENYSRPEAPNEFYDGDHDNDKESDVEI
T1 sequence (Q13547 whole entry): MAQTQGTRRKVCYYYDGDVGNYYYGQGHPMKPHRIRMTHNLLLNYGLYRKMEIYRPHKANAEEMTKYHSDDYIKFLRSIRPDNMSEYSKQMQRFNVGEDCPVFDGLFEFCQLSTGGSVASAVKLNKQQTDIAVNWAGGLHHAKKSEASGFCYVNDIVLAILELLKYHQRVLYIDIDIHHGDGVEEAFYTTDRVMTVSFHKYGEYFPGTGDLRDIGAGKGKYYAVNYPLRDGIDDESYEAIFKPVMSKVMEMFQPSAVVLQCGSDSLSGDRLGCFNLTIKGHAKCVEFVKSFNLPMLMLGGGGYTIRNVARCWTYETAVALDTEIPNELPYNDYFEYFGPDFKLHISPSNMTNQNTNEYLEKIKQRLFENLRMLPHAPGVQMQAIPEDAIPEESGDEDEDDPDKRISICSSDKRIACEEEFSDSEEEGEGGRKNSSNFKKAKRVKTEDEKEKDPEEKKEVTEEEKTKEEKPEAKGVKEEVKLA

`O=C(CCCCCCC(=O)N/N=C/c1ccc(N(c2ccccc2)c2ccccc2)cc1)NO` gave a pIC50 (Histone deacetylase 1 [1]) of 8.08, a pIC50 [2] of 9.40 and a pIC50 (Histone deacetylase 3 [3]) of 7.29. The pIC50 (Histone deacetylase 2 [4]) was 7.81 and the pIC50 (Histone deacetylase 8) was 5.84.
`CC(C)[C@H](N)C(=O)SCC/C=C/[C@@H]1CC(=O)NCc2nc(cs2)C(=O)NC(C)(C)C(=O)N[C@@H](C(C)C)C(=O)O1` [BOCODEPSIN BESYLATE] gave a pIC50 (Histone deacetylase 1 [5]) of 8.92, a pIC50 (Histone deacetylase 2 [6]) of 8.62 and a pIC50 (Histone deacetylase 3 [7]) of 8.70.
In the case of `Nc1cc(F)ccc1NC(=O)c1ccc(CNC(=O)/C=C/c2cccnc2)cc1` [TUCIDINOSTAT], the pIC50 (Histone deacetylase 11) was 6.36 and the pIC50 [8] was 7.11.
